Assay results taken from patent publication US12544450B2, “Medical uses of thiol-functionalized polyglycerol derivatives” (FREIE UNIVERSITÄT BERLIN, priority 2019, dated 2026).
Entries after “also recorded” stand apart in the source; their conditions may differ.

Test system: lung mucus collected from patients with cystic fibrosis
Assay: Macrorheology of cystic fibrosis lung mucus after treatment with reducing agents
Set-up: species or system human
Conditions: 30 min at 37° C.; for Viscosity of CF mucus after treatment: frequency sweep at 2% strain, FIG. 8
Procedure: In order to determine the mucolytic potential of thiol-functionalized polyglycerol derivatives the rheological properties of lung mucus, which was collected from patients with cystic fibrosis, were determined before and after treatment with different reducing or control agents. In addition, mucus from a healthy donor was used as control. Rheological measurements can be generally used to determine both elastic and viscous material components. Clinical samples were obtained freshly from cystic fibrosis (CF) patients at Charité Berlin and put directly on ice after collection. Then, the samples were mixed with a protease inhibitor cocktail (Roche) and aliquoted in 150 μl portions. The samples were then treated with different concentrations of freshly prepared reducing agents for 30 min at 37° C. Control samples were kept on ice throughout the incubation time or treated with phosphate-buffered saline (PBS) and incubated for 30 min at 37° C. After the incubation time all samples were kept on ice until use for the macrorheological studies. Here, a Kinexus instrument (Malvern) with a cone-and-plate setup was used. The cone geometry was 20 mm diameter and a […] angle. Each sample was run with an amplitude sweep mode at an oscillatory frequency of 1 Hz to determine the linear viscoelastic regime. In order to obtain viscosity parameters, measurements were repeated at 2% stain in a frequency sweep mode.

Row | Structure (SMILES) | Elastic modulus (G') of CF mucus after treatment (amplitude sweep at 1 Hz, FIG. 7) | Viscosity of CF mucus after treatment
1 | CC(=O)N[C@@H](CS)C(=O)O [NAC, N-acetylcysteine] | comparably slight reduction of the elastic modulus like a treatment with physiological phosphate buffer (PBS) | does not show any enhanced mucolytic activity than PBS
2 | O[C@H](CS)[C@H](O)CS (racemic) [DTT, Dithiothreitol] | – | reduces the viscosity of CF mucus to level significantly below the viscosity level of mucus from healthy individuals; also recorded: completely destroys the viscosity properties of mucus
